{
  "source": "paper PMC6263802",
  "about": "(Journal of natural products, 2018)",
  "key": {"hBChE": {"target": "hBChE (Homo sapiens, UniProt P06276)", "sequence (P06276 29-602)": "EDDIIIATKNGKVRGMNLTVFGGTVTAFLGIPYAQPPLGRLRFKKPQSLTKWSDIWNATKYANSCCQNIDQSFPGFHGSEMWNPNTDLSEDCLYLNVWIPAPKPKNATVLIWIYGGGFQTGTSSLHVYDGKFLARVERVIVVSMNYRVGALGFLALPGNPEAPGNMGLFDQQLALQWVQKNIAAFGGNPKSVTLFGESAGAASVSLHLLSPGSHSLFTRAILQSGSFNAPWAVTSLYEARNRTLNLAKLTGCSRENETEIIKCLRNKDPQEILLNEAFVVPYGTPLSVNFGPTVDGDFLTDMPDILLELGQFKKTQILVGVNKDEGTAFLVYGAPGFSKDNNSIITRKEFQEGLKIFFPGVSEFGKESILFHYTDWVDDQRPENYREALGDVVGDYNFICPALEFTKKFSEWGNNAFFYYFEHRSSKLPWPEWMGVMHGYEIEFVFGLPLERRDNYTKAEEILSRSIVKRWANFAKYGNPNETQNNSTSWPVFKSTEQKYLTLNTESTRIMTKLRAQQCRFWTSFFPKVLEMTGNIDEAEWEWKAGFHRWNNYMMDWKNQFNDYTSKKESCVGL", "experiment": "Inhibition of human butyrylcholinesterase with butyrylthiocholine", "type": "biochemical", "conditions": "for inhibition at 10 µM: read-out: hBChE % Inhibition at 10μM"}, "hAChE": {"target": "hAChE (Homo sapiens, UniProt P22303)", "sequence (P22303 32-614)": "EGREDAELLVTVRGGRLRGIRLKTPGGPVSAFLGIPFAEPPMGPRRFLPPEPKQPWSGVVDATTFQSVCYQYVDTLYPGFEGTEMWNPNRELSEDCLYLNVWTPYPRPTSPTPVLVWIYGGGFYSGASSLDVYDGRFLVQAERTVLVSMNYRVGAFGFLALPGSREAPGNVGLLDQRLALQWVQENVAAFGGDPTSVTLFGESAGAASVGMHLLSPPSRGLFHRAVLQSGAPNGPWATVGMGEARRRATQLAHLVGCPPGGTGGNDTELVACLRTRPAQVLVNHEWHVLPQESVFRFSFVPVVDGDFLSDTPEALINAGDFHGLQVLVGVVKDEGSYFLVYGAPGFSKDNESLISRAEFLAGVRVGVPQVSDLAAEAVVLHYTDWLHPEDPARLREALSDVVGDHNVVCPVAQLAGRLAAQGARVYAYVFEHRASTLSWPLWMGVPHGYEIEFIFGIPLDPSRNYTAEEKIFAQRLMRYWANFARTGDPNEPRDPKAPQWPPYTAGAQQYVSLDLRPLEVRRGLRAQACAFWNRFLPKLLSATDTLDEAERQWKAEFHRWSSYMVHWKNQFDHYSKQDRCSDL", "experiment": "Inhibition of human acetylcholinesterase with acetylthiocholine", "type": "biochemical", "conditions": "for inhibition at 10 µM: read-out: hAChE % Inhibition at 10μM"}, "hiCE": {"target": "T1, hiCE (Homo sapiens, UniProt O00748)", "T1 sequence (O00748 27-555 limits assumed)": "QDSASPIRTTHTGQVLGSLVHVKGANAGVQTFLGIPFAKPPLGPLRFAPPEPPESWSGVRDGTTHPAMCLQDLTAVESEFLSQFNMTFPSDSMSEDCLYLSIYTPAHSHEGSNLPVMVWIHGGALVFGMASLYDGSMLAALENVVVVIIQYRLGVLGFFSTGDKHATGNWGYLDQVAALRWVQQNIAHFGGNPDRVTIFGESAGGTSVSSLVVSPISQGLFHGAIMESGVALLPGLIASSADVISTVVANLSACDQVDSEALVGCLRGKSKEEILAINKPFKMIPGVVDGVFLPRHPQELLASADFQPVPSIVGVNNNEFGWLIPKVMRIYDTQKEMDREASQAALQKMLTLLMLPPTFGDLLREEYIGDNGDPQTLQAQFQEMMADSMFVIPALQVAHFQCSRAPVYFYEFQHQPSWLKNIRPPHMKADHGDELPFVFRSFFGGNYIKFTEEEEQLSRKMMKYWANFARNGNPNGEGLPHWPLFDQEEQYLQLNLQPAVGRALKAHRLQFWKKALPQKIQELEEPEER", "type": "biochemical", "conditions": "after pre-incubation and removal of the small molecule"}, "[1]": {"target": "T2, hCE1 (human liver CE; CES1) (Homo sapiens, UniProt P23141)", "T2 sequence (P23141 18-563 limits assumed)": "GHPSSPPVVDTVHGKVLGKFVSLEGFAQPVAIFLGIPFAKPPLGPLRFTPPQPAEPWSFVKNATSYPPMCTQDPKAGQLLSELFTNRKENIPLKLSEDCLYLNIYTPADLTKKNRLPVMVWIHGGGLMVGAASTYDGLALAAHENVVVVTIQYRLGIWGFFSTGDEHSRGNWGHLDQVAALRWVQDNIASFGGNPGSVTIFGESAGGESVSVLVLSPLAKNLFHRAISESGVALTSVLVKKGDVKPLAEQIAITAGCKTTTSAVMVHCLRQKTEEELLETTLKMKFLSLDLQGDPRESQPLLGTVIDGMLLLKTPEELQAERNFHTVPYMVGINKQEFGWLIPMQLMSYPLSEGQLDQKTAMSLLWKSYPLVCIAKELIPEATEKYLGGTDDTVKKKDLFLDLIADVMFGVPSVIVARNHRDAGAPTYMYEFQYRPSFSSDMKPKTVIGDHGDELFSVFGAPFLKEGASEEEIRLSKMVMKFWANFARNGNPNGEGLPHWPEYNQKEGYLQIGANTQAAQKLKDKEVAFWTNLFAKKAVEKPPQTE", "experiment": "Inhibition of hCE1 with o-nitrophenyl acetate", "type": "biochemical", "conditions": "for hCE1 (o-NPA) Fold increase in potency: compared to the parent tanshinone"}, "[2]": {"tested_on": "U373MG cells expressing hCE1", "experiment": "Intracellular inhibition of oseltamivir hydrolysis", "type": "cell-based, human", "conditions": "10μM inhibitor 10 min, then oseltamivir 20μM 30 min; versus DMSO"}, "hCE1 [3]": {"target": "T3, hCE1 (Homo sapiens, UniProt P23141)", "T3 sequence (P23141 18-563 limits assumed)": "T2 sequence (P23141 18-563 limits assumed)", "type": "biochemical", "conditions": "after pre-incubation and removal of the small molecule"}, "[4]": {"target": "T4, hiCE (human intestinal CE; CES2) (Homo sapiens, UniProt O00748)", "T4 sequence (O00748 27-555 limits assumed)": "T1 sequence (O00748 27-555 limits assumed)", "experiment": "Inhibition of hiCE with o-NPA as substrate, spectrophotometric assay", "type": "biochemical", "conditions": "compared to the parent tanshinone"}, "hCE1 [5]": {"target": "T3, hCE1", "experiment": "MS analysis of hCE1 protein after incubation with small molecules", "conditions": "for Increase in mass of hCE1 after incubation: all three enzyme species, 4 at 10μM"}, "[6]": {"target": "T2, hCE1 (human liver CE; CES1)", "conditions": "read-out: hCE1 (o-NPA) Ki ± SE; parent tanshinones, previously reported; cited from earlier work"}, "[7]": {"conditions": "hCE1 species of 61374 Da (first glycoform)"}, "[8]": {"conditions": "hCE1 species of 61537 Da (second glycoform)"}, "[9]": {"conditions": "hCE1 species of 61698 Da (third glycoform)"}},
  "note": "Read-outs that look alike come from different tables or passages of the source.",
  "data": [
    {"compound": "Cc1coc2c1C(=O)C(=O)c1c-2ccc2c(C)cccc12", "note": "[Compound 1, Tanshinone I]", "values": [
      {"measurement": "IC50", "setting": "hBChE", "result": "> 10", "unit": "µM"},
      {"measurement": "inhibition at 10 µM", "setting": "hBChE", "result": 6, "unit": "%"},
      {"measurement": "IC50", "setting": "hAChE", "result": "> 10", "unit": "µM"},
      {"measurement": "inhibition at 10 µM", "setting": "hAChE", "result": 10, "unit": "%"}
    ]},
    {"compound": "Cc1cccc2c1ccc1c3occ(C)c3c(=O)oc(=O)c21", "note": "[Compound 2, 4,9-dimethylfuro[3,2-c]naphtho[2,1-e]oxepine-1,3-dione]", "values": [
      {"measurement": "Irreversibility of hiCE inhibition", "setting": "hiCE", "result": "irreversible inhibition"},
      {"measurement": "hCE1 (o-NPA) Fold increase in potency", "setting": "[1]", "result": "10,937 fold"},
      {"measurement": "Reduction in oseltamivir hydrolysis (oseltamivir carboxylate formed)", "setting": "[2]", "result": "more than 70%"},
      {"measurement": "Irreversibility of hCE1 inhibition", "setting": "hCE1 [3]", "result": "irreversible inhibition"},
      {"measurement": "hiCE (o-NPA) Fold increase in potency", "setting": "[4]", "result": "17,744 fold"}
    ]},
    {"compound": "Cc1coc2c1C(=O)C(=O)c1c-2ccc2c1CCCC2(C)C", "note": "[Compound 3, Tanshinone IIA]", "values": [
      {"measurement": "IC50", "setting": "hBChE", "result": "> 10", "unit": "µM"},
      {"measurement": "inhibition at 10 µM", "setting": "hBChE", "result": 1, "unit": "%"},
      {"measurement": "IC50", "setting": "hAChE", "result": "> 10", "unit": "µM"},
      {"measurement": "inhibition at 10 µM", "setting": "hAChE", "result": 4, "unit": "%"}
    ]},
    {"compound": "Cc1coc2c1c(=O)oc(=O)c1c3c(ccc12)C(C)(C)CCC3", "note": "[Compound 4, 4,9,9-trimethyl-9,10,11,12-tetrahydrofuro[3,2-c]naphtho[2,1-e]oxepine-1,3-dione]", "values": [
      {"measurement": "Irreversibility of hiCE inhibition", "setting": "hiCE", "result": "irreversible inhibition"},
      {"measurement": "Irreversibility of hiCE inhibition", "setting": "hiCE; listed as A", "result": "irreversible enzyme inhibition"},
      {"measurement": "Increase in mass of hCE1 after incubation", "setting": "hCE1 [5]", "result": "308–312 Da"},
      {"measurement": "Observed mass of adduct", "setting": "hCE1 [5]; [7]", "result": 312, "unit": "Da"},
      {"measurement": "Observed mass of adduct", "setting": "hCE1 [5]; [8]", "result": 308, "unit": "Da"},
      {"measurement": "Observed mass of adduct", "setting": "hCE1 [5]; [9]", "result": 309.8, "unit": "Da"},
      {"measurement": "IC50", "setting": "[1]", "result": 0.00106, "unit": "µM"},
      {"measurement": "hCE1 (o-NPA) Fold increase in potency", "setting": "[1]", "result": "3,626 fold"},
      {"measurement": "Reduction in oseltamivir hydrolysis (oseltamivir carboxylate formed)", "setting": "[2]", "result": "more than 70%"},
      {"measurement": "Irreversibility of hCE1 inhibition", "setting": "hCE1 [3]", "result": "irreversible inhibition"},
      {"measurement": "Irreversibility of hCE1 inhibition", "setting": "hCE1 [3]; listed as A", "result": "irreversible enzyme inhibition"},
      {"measurement": "hiCE (o-NPA) Fold increase in potency", "setting": "[4]", "result": "1,750 fold"}
    ]},
    {"compound": "Cc1cccc2c3c(ccc12)C1=C(C(=O)C3=O)[C@@H](C)CO1", "note": "[Compound 5, Dihydro-tanshinone]", "values": [
      {"measurement": "Ki", "setting": "[6]", "result": "0.398 ± 0.066", "unit": "µM"},
      {"measurement": "hBChE % Inhibition at 10μM", "setting": "hBChE; 10μM inhibitor", "result": 5, "unit": "%"},
      {"measurement": "IC50", "setting": "hBChE; read-out: hBChE IC50 ± SE, BTCh substrate", "result": "> 10", "unit": "µM"},
      {"measurement": "hAChE % Inhibition at 10μM", "setting": "hAChE; 10μM inhibitor", "result": 84, "unit": "%"},
      {"measurement": "IC50", "setting": "hAChE; read-out: hAChE IC50 ± SE, ATCh substrate", "result": 1.95, "unit": "µM"}
    ]},
    {"compound": "Cc1cccc2c1ccc1c3c(c(=O)oc(=O)c12)[C@@H](C)CO3", "note": "[Compound 6, 4,9-dimethyl-4,5-dihydrofuro[3,2-c]naphtho[2,1-e]oxepine-1,3-dione]", "values": [
      {"measurement": "Irreversibility of hiCE inhibition", "setting": "hiCE", "result": "irreversible inhibition"},
      {"measurement": "Observed mass of adduct", "setting": "hCE1 [5]; [7]", "result": 288, "unit": "Da"},
      {"measurement": "Observed mass of adduct", "setting": "hCE1 [5]; [8]", "result": 289, "unit": "Da"},
      {"measurement": "Observed mass of adduct", "setting": "hCE1 [5]; [9]", "result": 282, "unit": "Da"},
      {"measurement": "hCE1 (o-NPA) Fold increase in potency", "setting": "[1]", "result": 111, "unit": "fold"},
      {"measurement": "Irreversibility of hCE1 inhibition", "setting": "hCE1 [3]", "result": "irreversible inhibition"},
      {"measurement": "hiCE (o-NPA) Fold increase in potency", "setting": "[4]", "result": 193, "unit": "fold"}
    ]},
    {"compound": "C[C@H]1COC2=C1C(=O)C(=O)c1c2ccc2c1CCCC2(C)C", "note": "[Compound 7, Crypto-tanshinone]", "values": [
      {"measurement": "IC50", "setting": "hBChE", "result": "> 10", "unit": "µM"},
      {"measurement": "inhibition at 10 µM", "setting": "hBChE", "result": 1, "unit": "%"},
      {"measurement": "IC50", "setting": "hAChE", "result": 6.41, "unit": "µM"},
      {"measurement": "inhibition at 10 µM", "setting": "hAChE", "result": 44, "unit": "%"}
    ]},
    {"compound": "C[C@H]1COc2c1c(=O)oc(=O)c1c3c(ccc21)C(C)(C)CCC3", "note": "[Compound 8, 4,9,9-trimethyl-4,5,9,10,11,12-hexahydrofuro[3,2-c]naphtho[2,1-e]oxepine-1,3-dione]", "values": [
      {"measurement": "Irreversibility of hiCE inhibition", "setting": "hiCE", "result": "irreversible inhibition"},
      {"measurement": "Irreversibility of hiCE inhibition", "setting": "hiCE; listed as B", "result": "irreversible enzyme inhibition"},
      {"measurement": "IC50", "setting": "[1]", "result": 0.00133, "unit": "µM"},
      {"measurement": "hCE1 (o-NPA) Fold increase in potency", "setting": "[1]", "result": 194, "unit": "fold"},
      {"measurement": "Reduction in oseltamivir hydrolysis (oseltamivir carboxylate formed)", "setting": "[2]", "result": "more than 70%"},
      {"measurement": "Irreversibility of hCE1 inhibition", "setting": "hCE1 [3]", "result": "irreversible inhibition"},
      {"measurement": "Irreversibility of hCE1 inhibition", "setting": "hCE1 [3]; listed as B", "result": "irreversible enzyme inhibition"},
      {"measurement": "hiCE (o-NPA) Fold increase in potency", "setting": "[4]", "result": 188, "unit": "fold"}
    ]},
    {"compound": "O=S(=O)(F)Cc1ccccc1", "note": "[PMSF, phenylmethanesulfonyl fluoride, reference compound]", "values": [
      {"measurement": "Increase in mass of hCE1 after incubation", "setting": "hCE1 [5]", "result": "154–157 Da"}
    ]}
  ]
}
